Where two headings read alike, the source gives them in different places.
What was measured:
[1] = not told; cited from earlier work
[2] = tested on: SARS-CoV-2 WA/1; type: cell-based
[3] = tested on: MERS-CoV; type: cell-based; conditions: HAE, two donors, 10, 1, 0.1 μM, MOI 0.5, 72 hpi
[4] = tested on: SARS-CoV-2 Omicron BA.1; type: cell-based
[5] = tested on: SARS-like bat-CoV RsSHC014; type: in vivo, mouse
[6] = tested on: SARS-CoV Urbani; type: cell-based; conditions: HAE, two donors, 10, 1, 0.1 μM, MOI 0.5, 72 hpi
[7] = tested on: SARS-CoV-2 WA/1; experiment: microbe, parasite or virus in culture; type: cell-based; conditions: Severe acute respiratory syndrome coronavirus 2, read-out: EC50, inhibition of SARS-CoV-2 replication
[8] = tested on: bat-CoV RsSHC014; type: cell-based
[9] = tested on: LLC-MK2-TMPRSS2 cells
[10] = Mouse GS-5245 pharmacokinetic study; conditions: 30 mg/kg GS-5245 oral, timepoints over 24 hr, three mouse strains
[11] = tested on: SARS-CoV-2 Omicron (B.1.1.529/BA.1); conditions: mouse, in vivo
[12] = tested on: A549-hACE2 cells
[13] = tested on: primary human airway epithelial (HAE) cells
[14] = direct oral dosing of GS-441524, non-human primates; cited from earlier work

CC(C)C(=O)OC[C@H]1O[C@@](C#N)(c2ccc3c(N)ncnn23)[C@H](O)[C@@H]1O [GS-5245]
cellular permeability [1]: increased cellular permeability over GS-441524 | infectious virus production (PFU in apical washes) [2]: dose-dependent reduction in infectious virus production | infectious virus production (PFU in apical washes) [3]: dose-dependent reduction in infectious virus production | infectious virus production (PFU in apical washes) [4]: dose-dependent reduction in infectious virus production | viral titers and gross lung pathology ([5]; 10 mg/kg BID, 12 or 24 hpi, 4 dpi): did not exhibit reduced viral titers | body weight compared to vehicle-treated mice ([5]; 30 mg/kg BID initiated at 12 hpi): increased weight | virus lung titers and gross lung pathology ([5]; 30 mg/kg BID, irrespective of initiation time (12 or 24 hpi), 4 dpi): reduced virus lung titers and gross lung pathology | acute lung injury scores (ATS and DAD) ([5]; 30 mg/kg initiated 24 hpi, 4 dpi): reductions in DAD scores only | acute lung injury scores (ATS and DAD) ([5]; 30 mg/kg initiated at 12 hpi, 4 dpi): reduced acute lung injury scores with both scoring tools | infectious virus production (PFU in apical washes) [6]: dose-dependent reduction in infectious virus production | EC50 [7]: 740 nM | infectious virus production (PFU in apical washes) [8]: dose-dependent reduction in infectious virus production | cytotoxicity [9]: without cytotoxicity | intact GS-5245 prodrug in plasma [10]: No intact GS-5245 prodrug was observed at any timepoint sampled | ATS ALI and DAD scores [11]: Unlike ATS ALI scores (Fig. 6D), DAD scores were different | lung viral titers relative to vehicle [11]: lower lung viral titers | macroscopic lung pathology [11]: less macroscopic lung pathology | cytotoxicity [12]: without cytotoxicity | cytotoxicity in HAE [13]: without measurable cytotoxicity

N#C[C@@]1(c2ccc3c(N)ncnn23)O[C@H](CO)[C@@H](O)[C@H]1O [GS-441524]
oral bioavailability [14]: low bioavailability | EC50 [7]: 4600 nM | cytotoxicity [9]: without cytotoxicity

CC(C)(C)[C@H](NC(=O)C(F)(F)F)C(=O)N1C[C@H]2[C@@H]([C@H]1C(=O)N[C@H](C#N)C[C@@H]1CCNC1=O)C2(C)C [nirmatrelvir]
EC50 [7]: 70 nM

CCC(CC)COC(=O)[C@H](C)N[P@](=O)(OC[C@H]1O[C@@](C#N)(c2ccc3c(N)ncnn23)[C@H](O)[C@@H]1O)Oc1ccccc1 [remdesivir]
EC50 [7]: 190 nM | cytotoxicity [9]: without cytotoxicity

Source: paper PMC11333937 (Science translational medicine, 2024)
